The assay relates to BDF1 mice, B16 melanoma ip, median survival T/C. Description: NCI In Vivo Anticancer Drug Screen. Data for tumor model B16 Melanoma (intraperitoneal) in B6D2F1 (BDF1) mice. The settings on record: endpoint: median survival time, higher = longer survival. The protocol: The antitumor activity of compounds was measured in mice bearing transplantable tumors. Survival or tumor size were measured and the results are expressed as the measurement made in the treated group (T) divided by the measurement made in the vehicle treated control group (C). The tumor model used in this assay is B16 Melanoma (intraperitoneal) in B6D2F1 (BDF1) mice

Where [1] appears, read: dose: 25.0 mg/kg/injection, schedule: Q01DX009 (ip), vehicle: saline.
The mark [2] stands for this setting: dose: 50.0 mg/kg/injection, schedule: Q01DX009 (ip), vehicle: saline.
The mark [3] stands for this setting: dose: 100.0 mg/kg/injection, schedule: Q01DX009 (ip), vehicle: saline.
Where [4] appears, read: dose: 12.5 mg/kg/injection, schedule: Q01DX009 (ip), vehicle: Klucel (hydroxypropylcellulose) (HPC).
[5] abbreviates: dose: 100.0 mg/kg/injection, schedule: Q01DX009 (ip), vehicle: Klucel (hydroxypropylcellulose) (HPC).
Setting [6] is: dose: 200.0 mg/kg/injection, schedule: Q01DX009 (ip), vehicle: Klucel (hydroxypropylcellulose) (HPC).
The mark [7] stands for this setting: dose: 100.0 mg/kg/injection, schedule: Q01DX009 (ip), vehicle: saline with Tween-80.
Setting [8] is: dose: 200.0 mg/kg/injection, schedule: Q01DX009 (ip), vehicle: saline with Tween-80.
[9] abbreviates: dose: 400.0 mg/kg/injection, schedule: Q01DX009 (ip), vehicle: saline with Tween-80.
Where [10] appears, read: dose: 25.0 mg/kg/injection, schedule: Q01DX009 (ip), vehicle: Klucel (hydroxypropylcellulose) (HPC).
Where [11] appears, read: dose: 50.0 mg/kg/injection, schedule: Q01DX009 (ip), vehicle: Klucel (hydroxypropylcellulose) (HPC).

Where “and” joins values, the source holds several entries; their conditions need not be identical. Identical values can stand only once. Inconclusive results and toxic doses are left out.

In PubChem BioAssay AID192 (DTP/NCI, 2004) one finds T/C data, which are given here for 16 molecules.

For the molecule `COc1cc(C(=O)OC(C)CN2CCOCC2)cc(OC)c1OC` (stereo not given), the T/C (dose: 3.12 mg/kg/injection, schedule: Q04DX003 (ip), vehicle: saline) is 106 % of control; the T/C (dose: 6.25 mg/kg/injection, schedule: Q04DX003 (ip), vehicle: saline) was 111 % of control; the T/C (dose: 12.5 mg/kg/injection, schedule: Q01DX009 (ip), vehicle: saline) was 100 % of control; the T/C (dose: 12.5 mg/kg/injection, schedule: Q04DX003 (ip), vehicle: saline) is 106 % of control; the T/C under setting [1] was 100 % of control; the T/C (dose: 25.0 mg/kg/injection, schedule: Q04DX003 (ip), vehicle: saline) was 105 % of control. The T/C under setting [2] is 100 % of control; the T/C (dose: 50.0 mg/kg/injection, schedule: Q04DX003 (ip), vehicle: saline) was 102 % of control; the T/C under setting [3] is 108 % of control; the T/C (dose: 100.0 mg/kg/injection, schedule: Q04DX003 (ip), vehicle: saline) was 98 % of control; the T/C (dose: 200.0 mg/kg/injection, schedule: Q01DX009 (ip), vehicle: saline) was 102 % of control; the T/C (dose: 200.0 mg/kg/injection, schedule: Q04DX003 (ip), vehicle: saline) is 118 % of control. For the same molecule, the T/C (dose: 400.0 mg/kg/injection, schedule: Q04DX003 (ip), vehicle: saline) is 97 % of control.
As for `COc1cccc(NC(=O)CCC(=O)O)c1`, the T/C was 89 % of control (dose: 1.56 mg/kg/injection, schedule: Q01DX009 (ip), vehicle: Klucel (hydroxypropylcellulose) (HPC)); 102 % of control (dose: 3.12 mg/kg/injection, schedule: Q01DX009 (ip), vehicle: Klucel (hydroxypropylcellulose) (HPC)); 92 % of control (dose: 6.25 mg/kg/injection, schedule: Q01DX009 (ip), vehicle: Klucel (hydroxypropylcellulose) (HPC)); 94 % of control under setting [4].
Consider `C/C=C/C(=O)OC(C)CCC(CC)CCCC` (stereo not given), for which the T/C is 90 % of control under setting [5]; 90 % of control under setting [6]; 90 % of control (dose: 400.0 mg/kg/injection, schedule: Q01DX009 (ip), vehicle: Klucel (hydroxypropylcellulose) (HPC)).
Turning to `NC(=S)N/N=C1/c2cc(Cl)ccc2-c2c(NC(=O)C(Cl)Cl)cc(Cl)cc21`, the T/C by setting is: under setting [7], 95 % of control; under setting [8], 93 % of control; under setting [9], 86 % of control.
On to `Nc1ccc(-c2ccc(N)c([N+](=O)[O-])c2)cc1[N+](=O)[O-]`, for which the T/C reads like this: under setting [7], 100 % of control; under setting [8], 97 % of control; under setting [9], 105 % of control.
Consider `Cc1ccc2c([N+](=O)[O-])cccc2n1`, for which the T/C runs as follows: under setting [10], 107 % of control; under setting [11], 93 % of control; under setting [5], 98 % of control.
Regarding `Cc1ccc(NC(=O)Nc2cccc3ccccc23)c(C)c1`, the T/C was 89 % of control under setting [5] and 98 % of control under setting [6].
As for `CC1(C)N=C(N)N=C(N)N1c1ccc(CCCCc2ccc(S(=O)(=O)F)cc2Cl)c(Cl)c1`, the T/C is 120 % of control (dose: 1.56 mg/kg/injection, schedule: Q01DX009 (ip), vehicle: saline with Tween-80); 120 % of control (dose: 3.13 mg/kg/injection, schedule: Q01DX009 (ip), vehicle: saline with Tween-80); 117 % of control (dose: 3.13 mg/kg/injection, schedule: Q01DX009 (ip), vehicle: saline); 176 % of control (dose: 6.25 mg/kg/injection, schedule: Q01DX009 (ip), vehicle: saline with Tween-80); 120 % of control (dose: 9.4 mg/kg/injection, schedule: Q04DX003 (ip), vehicle: saline); 158 % of control and 189 % of control (dose: 12.5 mg/kg/injection, schedule: Q01DX009 (ip), vehicle: saline with Tween-80). In addition, the T/C is 119 % of control (dose: 18.75 mg/kg/injection, schedule: Q04DX003 (ip), vehicle: saline); 164 % of control and 200 % of control (dose: 25.0 mg/kg/injection, schedule: Q01DX009 (ip), vehicle: saline with Tween-80); 158 % of control under setting [1]; 182 % of control and 189 % of control (dose: 50.0 mg/kg/injection, schedule: Q01DX009 (ip), vehicle: saline with Tween-80); 178 % of control under setting [2]; 157 % of control (dose: 89.0 mg/kg/injection, schedule: Q04DX003 (ip), vehicle: saline with Tween-80). Besides, the T/C is 197 % of control under setting [7]; 95 % of control (dose: 133.0 mg/kg/injection, schedule: Q04DX003 (ip), vehicle: saline with Tween-80); 160 % of control (dose: 150.0 mg/kg/injection, schedule: Q04DX003 (ip), vehicle: saline).
`NC(=O)c1ncc[nH]c1=O`: the T/C was 118 % of control under setting [2] and 124 % of control under setting [3].
Consider `CNc1ccc(S(=O)(=O)O)cc1`, for which the T/C runs as follows: (dose: 100.0 mg/kg/injection, schedule: Q04DX003 (ip), vehicle: Klucel (hydroxypropylcellulose) (HPC)) 100 % of control; (dose: 200.0 mg/kg/injection, schedule: Q04DX003 (ip), vehicle: Klucel (hydroxypropylcellulose) (HPC)) 100 % of control; (dose: 400.0 mg/kg/injection, schedule: Q04DX003 (ip), vehicle: Klucel (hydroxypropylcellulose) (HPC)) 86 % of control.
For `CCc1ccc(NC(=O)NC(C)C)cc1`, the T/C is 112 % of control under setting [11], 109 % of control under setting [5] and 103 % of control under setting [6].
For the molecule `C=C1CCN(c2ccccc2)C1=O`, the T/C (dose: 4.0 mg/kg/injection, schedule: Q01DX009 (ip), vehicle: saline + alcohol) was 96 % of control; the T/C (dose: 8.0 mg/kg/injection, schedule: Q01DX009 (ip), vehicle: saline + alcohol) is 116 % of control; the T/C (dose: 16.0 mg/kg/injection, schedule: Q01DX009 (ip), vehicle: saline + alcohol) is 112 % of control; the T/C (dose: 64.0 mg/kg/injection, schedule: Q01DX009 (ip), vehicle: saline + alcohol) was 107 % of control.
For `Nc1cc(N)cc(Cc2ccccc2)c1`, the T/C by setting is: under setting [11], 101 % of control; under setting [5], 93 % of control; under setting [6], 100 % of control.
As for `COC1C(O)C(C)OC(O[C@@H]2C[C@H]3CC[C@@H]4[C@H](CC[C@]5(C)[C@@H](C6=CC(=O)OC6)CC[C@]45O)[C@@]3(C)[C@H](O)C2)C1O` (stereo not given in full), the T/C by setting is: under setting [4], 96 % of control; under setting [10], 87 % of control; under setting [11], 95 % of control; under setting [5], 98 % of control.
Turning to `CC(=O)SCCC(=O)O`, the T/C was 107 % of control (dose: 0.75 mg/kg/injection, schedule: Q01DX009 (ip), vehicle: saline); 112 % of control (dose: 1.5 mg/kg/injection, schedule: Q01DX009 (ip), vehicle: saline); 114 % of control (dose: 3.0 mg/kg/injection, schedule: Q01DX009 (ip), vehicle: saline).
`C1CCN(CCC2CCNCC2)C1`: the T/C by setting is: under setting [1], 109 % of control; under setting [2], 90 % of control.
